Measured values reported in patent US6544727B1, “Methods and devices for the removal of psoralens from blood products” (Cerus Corporation, priority 1995, dated 2003).
Read-outs that look alike come from different tables or passages of the source.

Columns and labels:
[1] = tested on: Salmonella tester strain TA97a
Summary of the method: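 Pre-incubation Ames method: overnight culture plus 10% Aroclor 1254-induced rat liver S-9 mix or 0.2M phosphate buffer pH 7.4, with test solutions of 0–500 μg/mL, shaken 20 min at 37° C. Plated in histidine/biotin top agar on minimal glucose agar, revertant colonies counted after 44 h at 37° C against spontaneous-revertant background.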

[2] = tested on: Pseudomonas; assay: Bacterial inactivation, colony forming units; format: cell-based; details: 16 μM; 5 J/cm^2 irradiation; starting titer 6.5 logs
Description: The bacteria, a strain of Pseudomonas, was inoculated into LB with a sterile loop and grown overnight in a shaker at 37° C. Based on the approximation that one OD at 610 mn is equivalent to 5×10^8 colony forming units (cfu)/mL, a 1:10 dilution of the culture was measured on a spectrophotometer, (manufactured by Shimatsu). The bacterial culture was added to a solution of 15% fetal bovine serum in DMEM to a final bacteria concentration of approximately 10^6/mL. An aliquot (0.8 mL) was transferred to a 1.5 mL snap-top polyethylene tube. An aliquot (0.004-0.040 mL) of the test compound stock solution prepared in water, ethanol or dimethylsulfoxide at 0.80-8.0 mM was added to the tube. Compounds were tested at a concentration of 16 μM. The tubes were placed in a light device as described in EXAMPLE 1 and irradiated with 1.3 J/cm^2, 1.2 J/cm^2, and finally 2.5 J/cm^2, for a total of 5 J/cm^2. 150 μL were removed for testing after each pulse period. Sterile 13 mL dilution tubes were prepared; each test compound required one tube with 0.4 mL of LB broth and four tubes containing 0.5 mL of LB broth. […] The colony forming units were then counted the following morning and the titer of the phage remaining after phototreatment was calculated based on the dilution factors. […]

[3] = Batch adsorption of S-59 and photoproducts from illuminated PC, HPLC (Examples 27, 28); format: physicochemical
Description: The peak corresponding to S-59 is present in the chromatograms representing non-illuminated S-59 (top) and illuminated S-59 (middle) at a retention time of approximately 12 minutes. The other peaks in the chromatogram representing illuminated S-59 (middle) (besides the injection peak at about 3 minutes) correspond to S-59 photoproducts formed during illumination. Note that the peaks appear at time (t)=18 minutes and t=20 minutes are plasma species and are not related to S-59. The peaks which remain in the bottom panel are not S-59 photoproducts, so removal of S-59 and photoproducts was essentially complete in this case as indicated by HPLC (i.e., non-detectable by HPLC).

[4] = Residual S-59 and photoproducts D and E in fresh frozen plasma after batch RD (Tables R, T); format: physicochemical, human
Description: Samples taken from each bag after a 1-hour incubation were analyzed for S-59 and photoproduct removal. The results (n=7) for residual S-59 and photoproducts D and E (two of primary photoproducts formed during illumination, as described above) are presented in Table R (ND=not detectable; 1 hour incubation).
The experiments were performed in the manner described above.

SMILES | revertant colonies per plate ([1]; TA97a + S9, 0.1 μg/plate) | revertant colonies per plate ([1]; TA97a + S9, 0.5 μg/plate) | revertant colonies per plate ([1]; TA97a + S9, 1 μg/plate) | revertant colonies per plate ([1]; TA97a + S9, 5 μg/plate) | revertant colonies per plate ([1]; TA97a − S9, 0.1 μg/plate) | revertant colonies per plate ([1]; TA97a − S9, 0.5 μg/plate) | revertant colonies per plate ([1]; TA97a − S9, 1 μg/plate) | revertant colonies per plate ([1]; TA97a − S9, 5 μg/plate) | log kill of Pseudomonas [2] [logs] | removal of S-59 ([3]; at 2 hours, Amberlite XAD-4 10 g/300 mL, illuminated platelets in 35% plasma/[…]% PAS III, HPLC) | S-59 and low molecular weight photoproducts adsorbed from PCs ([3]; batch devices, appropriate adsorbents) | residual S-59 in fresh frozen plasma ([4]; RD with […] g Dowex XUS 43493, approximately one hour incubation) [µM] | Concentration in plasma, Pre-Removal ([4]; Table R, 150 μM S-59 in plasma after 3 J/cm^2 UVA, before RD) [µM] | Concentration in plasma, Pre-removal (±SD) ([4]; Table T, 150 μM S-59 in plasma after 3 J/cm^2 UVA, before RD) [µM]
Cc1oc2c(C)c3oc(=O)cc(C)c3cc2c1CN [AMT, 4′-Aminomethyl-4,5′,8-trimethylpsoralen, reference compound] | −23 | 32 | 32 | 149 | 14 | 9 | 54 | 73 | 5.2 | – | – | – | – | –
Cc1oc2c(C)c3oc(=O)cc(C)c3cc2c1COCCN [Compound 2, 4′-(4-amino-2-oxa)butyl-4,5′,8-trimethylpsoralen] | – | – | – | – | – | – | – | – | – | greater than 99% | greater than 99% | ≤ 0.75 | 83.30 | 88.7 ± 4.1
